Molecules are shown by their SMILES. pIC50: −log10 of the molar value.

For test [1], the target named is Sodium-dependent dopamine transporter (Rattus norvegicus, UniProt P23977). Kind of test: Binding affinity towards dopamine transporter was determined using DA[3H]WIN-35428 as radioligand.
The target in test [2] is Norepinephrine transporter (Rattus norvegicus, UniProt Q9WTR4). Briefly: Binding affinity towards Norepinephrine transporter was determined using NE[3H]Nisoxetine as radioligand.
In test [3] the target is Monoamine transporters; serotonin & dopamine (Homo sapiens) (UniProt P31645+Q01959). Briefly: Ratio of IC50 of 5-hydroxy tryptamine to dopamine. It is filed as protein assay.
A short description of test [4]: Ratio of IC50 of norepinephrine to dopamine.
The target in test [5] is Sodium-dependent serotonin transporter (Rattus norvegicus, UniProt P31652). Briefly: Binding affinity towards Serotonin transporter was determined using 5-HT [3H]paroxetine as radioligand.
Chain of Sodium-dependent serotonin transporter (P31652 whole entry): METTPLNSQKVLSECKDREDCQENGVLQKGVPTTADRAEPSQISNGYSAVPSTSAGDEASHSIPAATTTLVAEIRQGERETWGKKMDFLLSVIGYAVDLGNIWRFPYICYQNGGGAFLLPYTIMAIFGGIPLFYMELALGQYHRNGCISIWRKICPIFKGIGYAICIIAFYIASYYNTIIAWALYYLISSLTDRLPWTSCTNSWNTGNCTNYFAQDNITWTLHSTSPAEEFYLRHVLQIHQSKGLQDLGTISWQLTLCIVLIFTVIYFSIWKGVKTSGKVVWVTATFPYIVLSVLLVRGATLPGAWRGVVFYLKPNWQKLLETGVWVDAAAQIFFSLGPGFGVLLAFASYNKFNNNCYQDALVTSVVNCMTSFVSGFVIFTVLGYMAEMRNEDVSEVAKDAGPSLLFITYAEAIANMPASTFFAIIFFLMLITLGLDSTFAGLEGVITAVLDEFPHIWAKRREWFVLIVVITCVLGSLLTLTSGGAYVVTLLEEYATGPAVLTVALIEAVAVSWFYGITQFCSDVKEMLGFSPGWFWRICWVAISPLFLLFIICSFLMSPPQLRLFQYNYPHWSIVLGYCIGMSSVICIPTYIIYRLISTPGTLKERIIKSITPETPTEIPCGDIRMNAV

Chain of Norepinephrine transporter (Q9WTR4 whole entry): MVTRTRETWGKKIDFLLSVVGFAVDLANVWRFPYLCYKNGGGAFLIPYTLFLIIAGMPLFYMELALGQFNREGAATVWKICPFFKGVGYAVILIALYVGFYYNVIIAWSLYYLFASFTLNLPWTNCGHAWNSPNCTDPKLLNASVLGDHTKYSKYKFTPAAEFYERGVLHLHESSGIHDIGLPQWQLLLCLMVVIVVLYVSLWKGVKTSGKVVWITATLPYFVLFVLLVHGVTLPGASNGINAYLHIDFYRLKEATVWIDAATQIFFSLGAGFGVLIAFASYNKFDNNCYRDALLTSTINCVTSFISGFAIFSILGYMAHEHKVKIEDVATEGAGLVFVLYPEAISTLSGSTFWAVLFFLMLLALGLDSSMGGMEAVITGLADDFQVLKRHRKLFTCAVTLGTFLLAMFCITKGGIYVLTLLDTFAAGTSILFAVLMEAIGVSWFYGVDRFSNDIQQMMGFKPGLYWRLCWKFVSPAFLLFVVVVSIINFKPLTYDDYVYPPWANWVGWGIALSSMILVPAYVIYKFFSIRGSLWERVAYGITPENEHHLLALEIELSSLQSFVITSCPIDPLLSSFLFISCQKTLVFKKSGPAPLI
Chain of Monoamine transporters; serotonin & dopamine (Homo sapiens) (P31645 whole entry, looked up): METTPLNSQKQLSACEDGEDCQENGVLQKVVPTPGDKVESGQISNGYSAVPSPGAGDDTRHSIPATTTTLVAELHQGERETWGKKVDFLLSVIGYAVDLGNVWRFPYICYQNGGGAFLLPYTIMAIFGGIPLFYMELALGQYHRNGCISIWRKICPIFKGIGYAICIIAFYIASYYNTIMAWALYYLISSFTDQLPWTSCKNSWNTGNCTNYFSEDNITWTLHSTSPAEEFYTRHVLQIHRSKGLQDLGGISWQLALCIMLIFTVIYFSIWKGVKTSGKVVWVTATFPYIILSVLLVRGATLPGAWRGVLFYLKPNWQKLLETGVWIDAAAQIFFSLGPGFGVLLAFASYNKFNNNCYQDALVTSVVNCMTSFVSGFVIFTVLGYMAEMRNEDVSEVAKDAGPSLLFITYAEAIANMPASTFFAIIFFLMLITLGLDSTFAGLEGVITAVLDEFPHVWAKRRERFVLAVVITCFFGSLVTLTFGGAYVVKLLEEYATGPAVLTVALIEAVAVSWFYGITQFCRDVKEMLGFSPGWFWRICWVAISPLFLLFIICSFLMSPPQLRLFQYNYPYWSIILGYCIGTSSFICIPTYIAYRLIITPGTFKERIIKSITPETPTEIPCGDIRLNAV
Chain of Monoamine transporters; serotonin & dopamine (Homo sapiens) (Q01959 whole entry, looked up): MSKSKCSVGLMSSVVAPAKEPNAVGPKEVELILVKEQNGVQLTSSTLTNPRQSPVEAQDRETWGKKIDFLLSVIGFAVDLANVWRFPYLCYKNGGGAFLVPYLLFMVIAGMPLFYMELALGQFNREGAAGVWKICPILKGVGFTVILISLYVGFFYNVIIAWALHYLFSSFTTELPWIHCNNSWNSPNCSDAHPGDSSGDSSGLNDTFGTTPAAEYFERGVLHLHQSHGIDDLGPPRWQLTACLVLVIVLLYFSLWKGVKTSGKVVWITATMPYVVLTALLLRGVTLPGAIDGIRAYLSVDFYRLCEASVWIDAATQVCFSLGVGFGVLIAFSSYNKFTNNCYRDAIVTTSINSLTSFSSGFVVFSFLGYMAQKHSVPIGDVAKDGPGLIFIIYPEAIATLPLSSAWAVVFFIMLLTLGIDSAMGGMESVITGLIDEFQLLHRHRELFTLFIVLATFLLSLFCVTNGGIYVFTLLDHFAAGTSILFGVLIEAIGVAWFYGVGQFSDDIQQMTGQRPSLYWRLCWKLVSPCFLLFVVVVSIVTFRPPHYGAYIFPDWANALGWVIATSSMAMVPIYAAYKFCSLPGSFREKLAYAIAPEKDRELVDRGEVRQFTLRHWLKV
Chain of Sodium-dependent dopamine transporter (P23977 whole entry): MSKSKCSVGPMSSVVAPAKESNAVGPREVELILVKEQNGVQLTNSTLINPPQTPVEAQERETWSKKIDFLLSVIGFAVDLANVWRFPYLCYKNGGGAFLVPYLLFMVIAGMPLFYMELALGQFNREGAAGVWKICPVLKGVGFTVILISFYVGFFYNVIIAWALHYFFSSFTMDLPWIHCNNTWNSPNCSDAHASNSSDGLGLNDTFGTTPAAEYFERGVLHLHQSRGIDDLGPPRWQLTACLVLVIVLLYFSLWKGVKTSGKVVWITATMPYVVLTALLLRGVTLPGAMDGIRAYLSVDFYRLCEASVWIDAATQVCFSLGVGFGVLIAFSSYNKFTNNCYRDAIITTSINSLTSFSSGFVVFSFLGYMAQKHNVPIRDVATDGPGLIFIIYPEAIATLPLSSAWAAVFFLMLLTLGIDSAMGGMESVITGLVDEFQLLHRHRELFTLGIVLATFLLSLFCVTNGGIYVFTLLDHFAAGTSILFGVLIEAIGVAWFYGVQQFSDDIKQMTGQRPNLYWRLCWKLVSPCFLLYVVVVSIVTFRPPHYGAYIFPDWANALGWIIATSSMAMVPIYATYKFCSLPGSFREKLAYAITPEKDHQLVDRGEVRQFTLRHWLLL

Consider `CN1C2CCC1C(c1ncc(-c3ccccc3)o1)C(c1ccc(Cl)cc1)C2` (centres undefined), for which the pIC50 in test [1] was 7.71; in test [2], 6.30. Also, the Ratio worked out at 57 in test [3] and 25 in test [4].

On to `CN1C2CCC1C(C(=O)Oc1ccccc1)C(c1ccc(Cl)cc1)C2` (centres undefined), for which the Ratio in test [3] came to 1180; in test [4] it was 1490.

Turning to `CN1C2CCC1C(c1nc(-c3ccccc3)no1)C(c1ccc(Cl)cc1)C2` (centres undefined), the pIC50 in test [1] is 8.79; in test [2], 6.61. The Ratio in test [3] was found to be 120; in test [4], 151.

Consider `CN1C2CCC1C(c1nnc(-c3ccccc3)o1)C(c1ccc(Cl)cc1)C2` (centres undefined), for which the pIC50 in test [1] was 7.90; in test [2], 6.03. The figures for the Ratio in test [3] and in test [4] were 262 and 74, respectively.

`CN1C2CC[C@@H]1C[C@H](c1ccc(Cl)cc1)C2c1cc(-c2ccccc2)no1` (some centres undefined): the pIC50 in test [1] is 8.89; in test [5] it was 5.62; in test [2], 6.30. Further, the Ratio in test [3] was 1890; in test [4], 394.

The record behind these values is ChEMBL document CHEMBL1128533, “Synthesis and ligand binding study of 3 beta-(4'-substituted phenyl)-2 beta-(heterocyclic)tropanes” (J Med Chem, 1995).
